Source: patent publication US20230295201A1 (Gilead Sciences, Inc., priority 2020, published 2023)
Like-named read-outs stand apart in the source and are kept apart here.

Columns and labels:
Type in all cases: cell-based
[1] = test system: RSV A2; test: RSV NHBE EC50 (RSV A2 antiviral assay in normal human bronchial epithelial cells); conditions: NHBE cells, RSV A2, 4 days, read-out: RSV NHBE EC50
[2] = test system: RSV strain A2; test: RSV HEp-2 EC50 (infectious cytopathic cell protection assay); conditions: HEp-2 cells, RSV A2, 4 days, read-out: RSV HEp-2 EC50
Summary of the method: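 Percent inhibition of RSV-induced cytopathic effect came from remaining cell viability (CellTiter-Glo luminescence) after 4 days at 37° C. Compounds in 3-fold serial dilutions were exposed to an infectious mix of titered A2 virus and HEp-2 cells at 50,000/ml, with 0% and 100% inhibition control standards.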

[3] = test system: HRV16; test: HRV16 HELA EC50 (cytopathic effect in H1-HeLa cells)
Summary of the method: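 Read-out is luminescent cell viability (CellTiter-Glo) after 96 h of infection at 33 °C, scaled between uninfected and infected-untreated wells. Before infection with titrated virus, compounds went onto H1-HeLa cells as triplicate 3-fold dilution series.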

[4] = test system: DENV2 replicon; test: DENV-2 Huh-7 Rep EC50 (replicon luminescence); conditions: Dengue virus, DENV2, Huh-7, 48 h, read-out: DENV-2 Huh-7 Rep EC50
Summary of the method: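 EC50 derived from luminescence dose-response, normalised to DMSO-only 0% inhibition wells, after 1.5 h with EnduRen substrate. Compounds were first exposed for 48 h at 37° C to DENV2 replicon Huh-7 cells (5,000/well).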

[5] = human respiratory syncytial virus, NHBE, 96 h
[6] = human respiratory syncytial virus, HEp-2, 96 h
[7] = 96 h, H1-HeLa cells, 33° C., read-out: HRV16 HELA EC50
[8] = human respiratory syncytial virus, 96 h
[9] = H1-HeLa cells, 96 h, 33° C.; read-out: HRV16 HELA EC50

SMILES	EC50 [1, 5] [µM]	EC50 [2, 6] [µM]	EC50 [3, 7] [µM]	EC50 ([4]; Huh-7 replicon cells, 48 hours) [µM]	EC50 [2] [µM]	EC50 [1] [µM]	EC50 [1, 8] [µM]	EC50 [2, 8] [µM]	EC50 [3, 9] [µM]	EC50 [4] [µM]
CCCOC(=O)[C@H](C)N[P@](=O)(OC[C@@]1(C#N)O[C@@H](c2ccc3c(N)ncnn23)[C@H](O)[C@@H]1O)Oc1ccccc1 [Example 45, propyl ((S)-(((2R,3S,4R,5S)-5-(4-aminopyrrolo[2,1-f][1,2,4]triazin-7-yl)-2-cyano-3,4-dihydroxytetrahydrofuran-2-yl)methoxy)(phenoxy)phosphoryl)-L-alaninate]	0.248	0.055	0.375	9.66						
C[C@H](NP(=O)(OC[C@@]1(C#N)O[C@@H](c2ccc3c(N)ncnn23)[C@H](O)[C@@H]1O)Oc1ccccc1)C(=O)OC[C@H]1CC[C@H](N)CC1 (stereo partly drawn) [Example 210, ((1r,4S)-4-aminocyclohexyl)methyl ((((2R,3S,4R,5S)-5-(4-aminopyrrolo[2,1-f][1,2,4]triazin-7-yl)-2-cyano-3,4-dihydroxytetrahydrofuran-2-yl)methoxy)(phenoxy)phosphoryl)-L-alaninate]	3.02	1.78	27.9	> 50						
CCCCCOC(=O)C[C@H](NP(=O)(OC[C@@]1(C#N)O[C@@H](c2ccc3c(N)ncnn23)[C@H](O)[C@@H]1O)Oc1ccccc1)C(=O)OCCCCC (stereo partly drawn) [Example 215, Dipentyl ((((2R,3S,4R,5S)-5-(4-aminopyrrolo[2,1-f][1,2,4]triazin-7-yl)-2-cyano-3,4-dihydroxytetrahydrofuran-2-yl)methoxy)(phenoxy)phosphoryl)-L-aspartate]	> 3	1.1	3.39	44.3						
COC1CCC(OC(=O)[C@H](C)NP(=O)(OC[C@@]2(C#N)O[C@@H](c3ccc4c(N)ncnn34)[C@H](O)[C@@H]2O)Oc2ccccc2)CC1 (stereo partly drawn) [Example 165, 4-methoxycyclohexyl ((((2R,3S,4R,5S)-5-(4-aminopyrrolo[2,1-f][1,2,4]triazin-7-yl)-2-cyano-3,4-dihydroxytetrahydrofuran-2-yl)methoxy)(phenoxy)phosphoryl)alaninate]	1.61	1.94	11.3	> 100						
CC(=O)N1CCC(OC(=O)C(C)NP(=O)(OC[C@@]2(C#N)O[C@@H](c3ccc4c(N)ncnn34)[C@H](O)[C@@H]2O)Oc2ccccc2)CC1 (stereo partly drawn) [Example 185, 1-acetylpiperidin-4-yl ((((2R,3S,4R,5S)-5-(4-aminopyrrolo[2,1-f][1,2,4]triazin-7-yl)-2-cyano3,4-dihydroxytetrahydrofuran-2-yl)methoxy)(phenoxy)phosphoryl)alaninate]	> 5	7.94	> 80.2	> 100						
C[C@H](NP(=O)(OC[C@@]1(C#N)O[C@@H](c2ccc3c(N)ncnn23)[C@H](O)[C@@H]1O)Oc1ccccc1)C(=O)OC1CCOCC1 (single isomer, unassigned) [Example 56]	2.24		7.96	> 50	4.17					
C[C@H](NP(=O)(OC[C@@]1(C#N)O[C@@H](c2ccc3c(N)ncnn23)[C@H](O)[C@@H]1O)Oc1ccccc1)C(=O)OCC1CCN(CC(F)(F)F)CC1 (stereo partly drawn) [Example 31, (1-(2,2,2-trifluoroethyl)piperidin-4-yl)methyl ((((2R,3S,4R,5S)-5-(4-aminopyrrolo[2,1-f][1,2,4]triazin-7-yl)-2-cyano3,4-dihydroxytetrahydrofuran-2-yl)methoxy)(phenoxy)phosphoryl)alaninate]	0.258	0.334	2.5	96						
CC(NP(=O)(OC[C@@]1(C#N)O[C@@H](c2ccc3c(N)ncnn23)[C@H](O)[C@@H]1O)Oc1ccccc1)C(=O)O[C@H]1CCNC1=O (mixture of isomers) [Example 153, (S)-2-oxopyrrolidin-3-yl ((((2R,3S,4R,5S)-5-(4-aminopyrrolo[2,1-f][1,2,4]triazin-7-yl)-2-cyano-3,4-dihydroxytetrahydrofuran-2-yl)methoxy)(phenoxy)phosphoryl)alaninate]	> 5	7.14	12.5	> 100						
CC(=O)N1CC[C@@H](OC(=O)[C@H](C)NP(=O)(OC[C@@]2(C#N)O[C@@H](c3ccc4c(N)ncnn34)[C@H](O)[C@@H]2O)Oc2ccccc2)C1 (stereo partly drawn) [Example 146, (2S)—(R)-1-acetylpyrrolidin-3-yl 2-(((((2R,3S,4R,5S)-5-(4-aminopyrrolo[2,1-f][1,2,4]triazin-7-yl)-2-cyano-3,4-dihydroxytetrahydrofuran-2-yl)methoxy)(phenoxy)phosphoryl)amino)propanoate]	> 5	9.72	> 50	> 50						
C[C@H](NP(=O)(OC[C@@]1(C#N)O[C@@H](c2ccc3c(N)ncnn23)[C@H](O)[C@@H]1O)Oc1ccccc1)C(=O)O[C@H]1CC[C@@H](C(F)(F)F)CC1 (single isomer, unassigned) [Example 180]			0.851	6.62	0.142	0.833				
N#C[C@]1(COP(=O)(N[C@H](C(=O)OCC2CC2)C2CCCCC2)Oc2ccccc2)O[C@@H](c2ccc3c(N)ncnn23)[C@H](O)[C@@H]1O (stereo partly drawn) [Example 121, (2S)-cyclopropylmethyl 2-(((((2R,3S,4R,5S)-5-(4-aminopyrrolo[2,1-f][1,2,4]triazin-7-yl)-2-cyano-3,4-dihydroxytetrahydrofuran-2-yl)methoxy)(phenoxy)phosphoryl)amino)-2-cyclohexylacetate]	> 5	> 100	> 100	56.7						
C[C@H](N[P@@](=O)(OC[C@@]1(C#N)O[C@@H](c2ccc3c(N)ncnn23)[C@H](O)[C@@H]1O)Oc1ccccc1)C(=O)O[C@H]1CC[C@H](C(F)(F)F)CC1 (single isomer, unassigned) [Example 17]	0.088	0.308	0.489	53.7						
C[C@H](NP(=O)(OC[C@@]1(C#N)O[C@@H](c2ccc3c(N)ncnn23)[C@H](O)[C@@H]1O)Oc1ccccc1)C(=O)OC1CCOC(C)(C)C1 (stereo partly drawn) [Example 156, 2,2-dimethyltetrahydro-2H-pyran-4-yl ((((2R,3S,4R,5S)-5-(4-aminopyrrolo[2,1-f][1,2,4]triazin-7-yl)-2-cyano-3,4-dihydroxytetrahydrofuran-2-yl)methoxy)(phenoxy)phosphoryl)alaninate]	1.37	8.94	25.9	> 100						
C[C@H](NP(=O)(OC[C@@]1(C#N)O[C@@H](c2ccc3c(N)ncnn23)[C@H](O)[C@@H]1O)Oc1ccccc1)C(=O)OC1CCCC1 (stereo partly drawn) [Example 108, (2S)-cyclopentyl 2-(((((2R,3S,4R,5S)-5-(4-aminopyrrolo[2,1-f][1,2,4]triazin-7-yl)-2-cyano-3,4-dihydroxytetrahydrofuran-2-yl)methoxy)(phenoxy)phosphoryl)amino)propanoate]	0.239	0.147	0.289	40.8						
C[C@H](NP(=O)(OC[C@@]1(C#N)O[C@@H](c2ccc3c(N)ncnn23)[C@H](O)[C@@H]1O)Oc1ccccc1)C(=O)OC[C@H]1CC[C@H](C(F)(F)F)CC1 (mixture of isomers) [Example 26, ((1r,4S)-4-(trifluoromethyl)cyclohexyl)methyl ((((2R,3S,4R,5S)-5-(4-aminopyrrolo[2,1-f][1,2,4]triazin-7-yl)-2-cyano-3,4-dihydroxytetrahydrofuran-2-yl)methoxy)(phenoxy)phosphoryl)alaninate]	0.025	0.334	0.669	44.3						
CCC(CC)COC(=O)[C@H](C)NP(=O)(N[C@@H](C)C(=O)OC)OC[C@@]1(C#N)O[C@@H](c2ccc3c(N)ncnn23)[C@H](O)[C@@H]1O (mixture of isomers) [Example 221, 2-Ethylbutyl ((((2R,3S,4R,5S)-5-(4-aminopyrrolo[2,1-f][1,2,4]triazin-7-yl)-2-cyano-3,4-dihydroxytetrahydrofuran-2-yl)methoxy)(((S)-1-methoxy-1-oxopropan-2-yl)amino)phosphoryl)-L-alaninate]							> 1.05	1.18	8.49	> 100
CC(C)OP1(=O)OC[C@@]2(C#N)O[C@@H](c3ccc4c(N)ncnn34)[C@H](O)[C@@H]2O1 (stereo partly drawn) [Example 163, (4aR,6S,7S,7aS)-6-(4-aminopyrrolo[2,1-f][1,2,4]triazin-7-yl)-7-hydroxy-2-isopropoxydihydro-4H-furo[3,2-d][1,3,2]dioxaphosphinine-4a(6H)-carbonitrile 2-oxide]							9.21	13.3	> 50	> 50
